Experimental data taken from paper PMC9023740, “Mucin-Type O-Glycosylation Proximal to β-Secretase Cleavage Site Affects APP Processing and Aggregation Fate” (Frontiers in Chemistry, 2022).

Key:
Aβ40 = molecular target: T1, Aβ40 (Homo sapiens, UniProt P05067); assay: ThT aggregation kinetics assay of Aβ40 with APP (glyco)peptides; details: 50 mM phosphate buffer pH 7.4, 20 µM ThT, 37°C
T1 construct: Aβ40 peptide was synthesized on a PS3 solid phase peptide synthesizer; made in house; host or cells: chemical solid-phase peptide synthesis (Fmoc), no expression host
T1 sequence (P05067 672-711 limits assumed): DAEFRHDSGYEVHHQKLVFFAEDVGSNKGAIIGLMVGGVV
Experimental: Lyophilized peptide powder was dissolved in aqueous NaOH solution (2 mM), and the pH was adjusted to ∼11 by using 100 mM NaOH solution. The solution was sonicated for 1 h in an ice−water bath and then filtered through a 0.22 μm filter (Millipore) and kept on ice before use. The concentration of the peptide solution was determined by using the tyrosine UV absorbance at 280 nm (ε = 1280 M^−1 cm^−1).
The aggregation kinetics of Aβ40 in the absence and presence of APP (glyco)peptides was performed using ThT binding assay. The monomerized Aβ40 peptide solution was diluted to a final concentration of 10 µM in 50 mM phosphate buffer (pH 7.4) and 20 µM ThT dye. For the co-incubation assays with APP (glyco)peptides, APP stock solutions of 120 µM were added to the prepared Aβ40 for final (glyco) peptide concentrations of 10 µM or 50 µM and Aβ40 concentration of 10 µM in 50 mM phosphate buffer (pH 7.4) with 20 µM ThT dye. […] The plate was sealed with a microplate cover and loaded into a Gemini SpectraMax EM fluorescence plate reader (Molecular Devices, Sunnyvale, CA) and incubated at 37°C. The ThT fluorescence was measured from the bottom of the plate at 10 min intervals, with 5 s of shaking, and with an excitation and emission wavelengths of 440 and 480 nm, respectively. […]
°C. ThT fluorescence was measured in 10 minute intervals.

[1] = CD spectroscopy, secondary structure content by BeStSel; format: physicochemical; details: CD, BeStSel, 0.065 mg/ml, 25°C
Experimental: All (glyco)peptides were analyzed for their secondary structure using circular dichroism (CD) spectroscopy on a Jasco-810 spectropolarimeter (Jasco, Easton, MD) in three solvent systems: water, 10 mM sodium phosphate buffer (pH 7.4), and 50% trifluoroethanol (TFE) in water (v/v) mixture. The CD spectra were recorded using a quartz cell of 1 mm optical path length over a wavelength range of […] with a scanning speed of 100 nm/min and a response time of 4 s at 25°C. A concentration of 0.065 mg/ml, determined using the analytical RP-HPLC method, gave the […] signal-to-noise ratio for all (glyco)peptides. All spectra were baseline-corrected to account for the signal contribution from solvent and then converted into molar ellipticity (deg cm^2 dmol^−1) ([Sreerama and Woody, 2000]). Lastly, the percentages of all secondary structures were determined using the BeStSel method ([Micsonai et al., 2018]; [Singh et al., 2021]).
To study the role of O-glycosylation on the conformation of APP glycopeptides, circular dichroism (CD) spectroscopy was used to probe the secondary structure in three different solvents, water, sodium phosphate buffer (10 mM, pH 7.4), and 50% trifluoroethanol (TFE) in water (v/v) (Figure 1). The spectra were further analysed for secondary structure estimations by Beta Structure Selection (BeStSel) method, specifically designed for the analysis of beta sheet-rich proteins (Table 2) ([Micsonai et al., 2015], [2018]).

[2] = Analytical RP-HPLC retention time, read as hydrophobicity/hydrophilicity; format: physicochemical; details: C18 (Phenomenex Aeris Peptide C18 150 x 4.6 mm, 0.8 ml/min), 0.1% TFA water/acetonitrile, 0-60% B over 30 min, 214 nm, Supplementary S2-S9
Experimental: Purification of all (glyco)peptides and their corresponding analyses were performed on a 1,260 Agilent Infinity system. The analytical RP-HPLC method uses a Phenomenex Aeris Peptide C18 column (150 mm × 4.6 mm, 3.6 μm, 100 Å) at 0.8 ml/min flow rate or a Vydac Denali C18 column (250 mm × 4.6 mm, 5 μm, 120Å) at 1 ml/min flow rate, with 0.1% TFA in water (A) and 0.1% TFA in acetonitrile (B) as the eluents. The elution gradient for analytical RP-HPLC purification was 0–60% B over 30 min. The preparative RP-HPLC method uses the Grace Vydac monomeric C18 column (250 mm × 22 mm, 15–20 μm, 300Å) at 10 ml/min flow rate, with 0.1% TFA in water (A) and 0.1% TFA in acetonitrile (B) as the eluents. The elution gradient for preparative RP-HPLC purification was 0–50% over 110 min. The (glyco)peptides were detected at 214 nm by using a UV-Vis detector (Agilent 1,260 Infinity DAD). Purified (glyco)peptides were characterized by matrix-assisted laser desorption ionization time-of-flight mass spectrometry (MALDI-TOF MS) with a Voyager-DE STR system or a Bruker Microflex system, using α-cyano-4-hydroxycinnamic acid as matrix.
Automated solid-phase peptide synthesis (SPPS) approach on Tentagel S RAM resin was used to assemble the APP (glyco)peptides. […]

[3] = molecular target: T2, Recombinant human BACE-1 (rhBACE-1) (Homo sapiens, UniProt P56817); assay: Proteolytic cleavage of APP (glyco)peptides by BACE-1, RP-HPLC peak integration; format: biochemical; details: 100 μM substrate, 50 nM rhBACE-1, 0.1 M sodium acetate pH 4.0, 24 h, 37°C, dark; RP-HPLC peak integration at 214 nm, averaged from two injections, SD <5%
T2 construct: purchased R&D Systems #ES004 and #931-AS, respectively (so in the source)
T2 sequence (P56817 46-457 limits assumed): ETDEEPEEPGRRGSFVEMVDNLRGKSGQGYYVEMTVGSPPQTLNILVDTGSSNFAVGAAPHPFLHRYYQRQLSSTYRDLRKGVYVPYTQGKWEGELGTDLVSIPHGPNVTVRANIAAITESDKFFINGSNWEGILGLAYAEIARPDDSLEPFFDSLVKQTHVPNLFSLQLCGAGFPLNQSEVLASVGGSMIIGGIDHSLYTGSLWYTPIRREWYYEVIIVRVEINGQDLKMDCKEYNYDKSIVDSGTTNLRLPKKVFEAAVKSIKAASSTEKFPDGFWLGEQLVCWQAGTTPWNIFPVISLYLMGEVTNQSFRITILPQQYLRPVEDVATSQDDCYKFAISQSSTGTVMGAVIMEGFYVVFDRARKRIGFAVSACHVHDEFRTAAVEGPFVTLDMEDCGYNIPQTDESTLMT
Experimental: All APP-based substrates were prepared as 10 mM stocks in DMSO. Before proteolysis, the activity of BACE-1 was verified by the reaction with the fluorogenic BACE-1substrate Mca-[…](Dnp)RR-NH2 ([Koike et al., 1999]) as per the manufacturer’s instructions. For the proteolysis assay, APP-based substrates were diluted in BACE-1 activity buffer (0.1 M sodium acetate, pH 4.0) to the final assay concentration of 100 μM. BACE-1 was diluted to 50 nM final concentration. Reactions were incubated for 24 h at 37°C in the dark. After the incubation period, the enzyme cleavage solutions containing APP-based substrates and BACE-1 were analyzed using the analytical RP-HPLC method on the Aeris C18 column with 0.1% TFA in water (A) and 0.1% TFA in acetonitrile (B) as eluents and 0–60% B as the elution gradient over 30 min with a flow rate of 0.8 ml/min, and detection at 214 nm or the Vydac Denali C18 column with 0.1% TFA in water (A) and 0.1% TFA in acetonitrile (B) as eluents and 0–60% B as the elution gradient over 30 min with a flow rate of 1 ml/min, and detection at 214 nm. The identity of intact and cleaved (N- and C-terminal) fragments of (glyco)peptides in the absence and presence of BACE-1 (β-secretase) was confirmed by MALDI-TOF and their percentages were evaluated by the integration of the RP-HPLC peaks (averaged from two injections).
Glycosylation can alter substrate recognition and impact enzyme activity in either a positive (enhancing) or negative (inhibiting) manner ([Goettig, 2016]; [Goth et al., 2018]). The mucin-type O-linked glycosylation of a protein may not only affect its conformation but also affect its transport and localization in the cell ([Matsuura et al., 1989]; [Chen et al., 2002]). Proteases are highly regulated by post-translational modifications and drive fate, localization, and activity of many proteins ([Bond, 2019]). Certain mutations can also affect the subcellular localization of the cleavage event by crucial proteases and mediate a different cellular mechanism for the protein ([Haass et al., 1995]). […] Therefore, similar enzyme cleavage assays with BACE-1 were set up to explore the effect of the Swedish mutation, length of the amino acid sequence, glycan position and valency on the proteolytic susceptibility of 3–12. BACE1 produced two fragments upon cleavage of (glyco)peptides, for which yields were determined after 24 h treatment. The yields of intact peptide and fragments were evaluated by the RP-HPLC peaks integration (Table 3, and the Supplementary Material S20–S32).
3. Enzyme cleavage assays with APP (glyco)peptides 3-12 by RP-HPLC and MALDI-TOF MS
For the BACE1 enzyme cleavage assay, APP-based (glyco)peptide substrates were diluted in BACE1 activity buffer and incubated with BACE1 for 24 h at 37 °C in the dark. After the incubation period, the enzyme cleavage solutions containing APP-based (glyco)peptide substrates and BACE1 were analyzed using analytical RP-HPLC.
RP-HPLC gradient on Phenomenex Aeris Peptide C18 column (150 x 4.6 mm, 3.6 µm, 100Å):
Eluents were 0.1% TFA in water (A) and 0.1% TFA in acetonitrile (B). The elution gradient was 0-60%B in 30 minutes with a flow rate of 0.8 mL/min. Detection was at λ = 214 nm.
S*/T*= Ser(-α-GalNAc) 1/Thr(-α-GalNAc) 2
(a) APP665-680, 3 in activity buffer
(b) APP665-680 (3) + BACE1 in activity buffer […]

[4] = (B) 10 mM sodium phosphate buffer, pH 7.4

Molecule: CC(=O)N[C@H]1C(O)O[C@H](CO)[C@H](O)[C@@H]1O (mixture of isomers) [GalNAc, N-acetylgalactosamine]
- Δt50 (t50 with additive - Aβ40 t50) (Aβ40; additive 10 and 50 µM, Aβ40 10 µM): < 0.5 h

Molecule: Aβ40: amyloid-β 40 peptide made by Fmoc SPPS, model peptide for studying protein aggregation
- half time (t 50) of the growth phase of Aβ40 amyloidogenesis (Aβ40; Aβ40 10 μM alone, triplicate): approximately 8 h

Molecule: IKT*EEISEVKM∼DAEFRHDSG [compound 8, native APP 661-680 glycopeptide with O-GalNAc on Thr^663]
- RC (%) random coil ([1]; (A) water): 87.4%
- α-H (%) α-helix ([1]; (A) water): 1.4%
- β-AP (%) anti-parallel β-sheet ([1]; (A) water): 5.4%
- β-P (%) parallel β-sheet ([1]; (A) water): 0.0%
- β-T (%) β-turn ([1]; (A) water): 5.7%
- RC (%) random coil [1, 4]: 30.4%
- α-H (%) α-helix [1, 4]: 8.8%
- β-AP (%) anti-parallel β-sheet [1, 4]: 42.6%
- β-P (%) parallel β-sheet [1, 4]: 0.0%
- β-T (%) β-turn [1, 4]: 18.3%
- RC (%) random coil ([1]; (C) TFE/water = 1:1 (v/v)): 8.3%
- α-H (%) α-helix ([1]; (C) TFE/water = 1:1 (v/v)): 85.7%
- β-AP (%) anti-parallel β-sheet ([1]; (C) TFE/water = 1:1 (v/v)): 0.0%
- β-P (%) parallel β-sheet ([1]; (C) TFE/water = 1:1 (v/v)): 0.0%
- β-T (%) β-turn ([1]; (C) TFE/water = 1:1 (v/v)): 6.0%
- RP-HPLC t R [2]: 14.4 min
- BACE-1 activity, Cleaved (%) [3]: 8.46%
- BACE-1 activity, Recovered (%) [3]: 91.5%
